Experimental data: patent US20240116926A1, “HETEROAROMATIC COMPOUNDS” (AstraZeneca AB, priority 2022, published 2024)
In brackets after ≈: the same amount, converted by molar mass.

Experiments:
[1] = tested on: MCF7-Luciferase cell line; assay: Control reporter (MCF7-Luciferase); assay type: cell-based; settings: MCF7-Luciferase cells, luciferase activity after 24 hours
Procedure: (iii) Control Reporter (MCF7-Luciferase)
MCF7-Luciferase cell line was obtained from […] (catalog number SC050-L) and was maintained in DMEM containing 10% fetal calf serum, 2 mM glutamine. Cells were grown in a humidified incubator at 37° C. with 5% CO2. Cells were distributed to flat bottom white polystyrene TC treated 384 well plates at a density of 3,500 cells/well in 30 μL. Cells were incubated for 24 hours at 37° C. with 5% CO2. Cells were acoustically dosed using an Echo 555, with compounds serially diluted in 100% DMSO. Plates were incubated for an additional 24 hours. Cells were examined for luciferase activity through the addition of 30 μL Bright-Glo luciferase (Promega catalog number E2620). Plates were incubated for 10 minutes at room temperature and luminescence was read using Tecan plate reader. The data obtained with each compound was exported to […] software to perform curve fitting analysis.

MCF7-Tead cell line = assay: TEAD reporter assay; assay type: cell-based; settings: MCF7-Tead cells, luciferase activity after 24 hours
Procedure: MCF7-Tead cell line was obtained from BPS BIOSCIENCE (catalog number 60618) and was maintained in DMEM containing 10% fetal calf serum, 2 mM glutamine, and 400 μg/ml G418. Cells were grown in a humidified incubator at 37° C. with 5% CO2. Cells were distributed to flat bottom white polystyrene TC treated 384 well plates at a density of 3,500 cells/well in 30 uL. Cells were incubated for 24 hours at 37° C. with 5% CO2. Cells were acoustically dosed using an Echo 555, with compounds serially diluted in 100% DMSO. Plates were incubated for an additional 24 hours. Cells were examined for luciferase activity through the addition of 30 μL Bright-Glo luciferase (Promega catalog number E2620). Plates were incubated for 10 minutes at room temperature and luminescence was read using Tecan plate reader. The data obtained with each compound was exported to […] software to perform curve fitting analysis.

[2] = Protein binding measurements in human plasma (Hu PPB); assay type: in vitro ADME; settings: equilibrium dialysis for 18 hours, fraction unbound
Procedure: The automated equilibrium dialysis assay in human plasma uses the RED (Rapid Equilibrium Dialysis) Device and sample handling. The assay generally runs over two to three days including delivery of results. After dialysis for 18 hours, plasma and buffer samples are prepared for analysis by liquid chromatography and mass spectrometry. Samples are generally tested in singlicates and quantified by LC/MSMS by using a 7-point calibration curve in plasma. The compounds are pooled together in plasma pools up to 10 compounds. Three reference compounds are used in each run, Propranolol, Metoprolol and Warfarin. Warfarin is used as a control in each pool and Propranolol and Metoprolol are placed randomly in each run. An in-house Excel macro is used for preparation of files for the robot and the mass spectrometer and is also used for the calculations of fraction unbound (fu %) in plasma.

[3] = Solubility (thermodynamic, shake-flask); assay type: physicochemical; settings: thermodynamic from solid; aqueous phosphate buffer (pH 7.4), 24 hours at 25° C.
Procedure: The thermodynamic solubility of a research compound is measured under standard conditions. It is a shake-flask approach that uses 10 mM DMSO solutions which are supplied from the Compound Managements liquid store and is a high throughput method. The dried compounds are equilibrated in an aqueous phosphate buffer (pH 7.4) for 24 hours at 25° C., the portion with the dissolved compound is then separated from the remains. The solutions are analyzed and quantified using UPLC/MS/MS, QC-samples are incorporated in each assay-run to ensure the quality of the assay.

TEAD4(217-434) = TEAD4(217-434) (Homo sapiens (Human), UniProt Q15561); assay: TEAD4 FRET; assay type: binding; settings: depalmitoylated, biotinylated TEAD4(217-434), FAM labelled Probe A, 120 min at 25° C.
Sequence of TEAD4(217-434) (Q15561 217-434): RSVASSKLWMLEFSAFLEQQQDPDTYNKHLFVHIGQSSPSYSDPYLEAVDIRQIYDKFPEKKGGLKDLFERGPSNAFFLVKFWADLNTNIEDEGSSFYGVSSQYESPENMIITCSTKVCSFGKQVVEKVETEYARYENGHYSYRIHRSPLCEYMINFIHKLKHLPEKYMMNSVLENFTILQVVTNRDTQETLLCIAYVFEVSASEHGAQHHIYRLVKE
Procedure: Compounds were dosed with a final DMSO concentration of 1% (v/v). Compound IC50 values were assessed following a 10-point, half-log10 dilution schema starting at 100 μM compound concentration. Specifically, human TEAD protein from TEAD4(217-434) was cloned into an overexpression vector, expressed as an N-terminal HIS-TEV-Avi-tagged fusion protein in E coli, and subsequently purified, then protein was chemically depalmitoylated & biotinylated. The assay was performed in 384-well LV plates (384-well black, medium binding, PS, HIBASE, GREINER #784076) and run in the presence and absence of the compound of interest. Each well of 5 μL assay mixture contained 10 mM Tris-HCl (pH 7.5), 100 mM NaCl, 0.05 mM EDTA, 1 mM TECP, 1% DMSO, 0.03% Pluronic acid F127, 20 nM dePal Avi TEAD4 (217-434)-depalmitoylated & biotinylated protein, 0.8 nM Streptavidin Terbium cryptate (CisBio #610SATLB), 625 nM FAM labelled Probe A. Reactions were incubated at 25° C. for 120 min before reading on a PHERASTAR FSX Plate Reader (337 520 490 HTRF module required) (Supplier BMP).
The data file from the PHERAstar FSX contains both the acceptor (520 nm) and donor channels (490 nm) (“Channel A”=acceptor channel (520 nm), “Channel B”=donor channel (490 nm)). The ratio of the donor and acceptor (Channel A/Channel B) is calculated within Genedata Assay Analyzer.
Probe A is 3′,6′-dihydroxy-3-oxo-N-{8-[2-(5-{2-[4-(trifluoromethyl)anilino]phenyl}-2H-tetrazol-2-yl)acetamido]octyl}-3H-spiro[[2]benzofuran-1,9′-xanthene]-5-carboxamide;

Structure (SMILES)	IC50 [1]	IC50 (MCF7-Tead cell line)	Hu PPB (% free) [2]	solubility at 24 h [3]	IC50 (TEAD4(217-434))
C=CC(=O)N1C[C@@H](CO)[C@H](Nc2nnc(-c3ccc(C(F)(F)F)cc3)c3ccccc23)C1 [Example 23, 1-((3R,4S)-3-(hydroxymethyl)-4-((4-(4-(trifluoromethyl)phenyl)phthalazin-1-yl)amino)pyrrolidin-1-yl)prop-2-en-1-one]	> 31700 nM	14 nM	4.7 % free	48 µM (≈ 21.2 µg/mL)	42 nM
C=CC(=O)N1C[C@@H](COC)[C@H](Nc2nnc(-c3ccc(C(F)(F)F)cc3)c3ccccc23)C1 [Example 28, 1-((3R,4S)-3-(methoxymethyl)-4-((4-(4-(trifluoromethyl)phenyl)phthalazin-1-yl)amino)pyrrolidin-1-yl)prop-2-en-1-one]	> 31700 nM	71 nM	3.9 % free	168 µM (≈ 76.7 µg/mL)	61 nM
C=CC(=O)N1CC[C@H](Nc2ncc(-c3ccc(C(F)(F)F)cc3)c3ncccc23)C1 [Example 39, (S)-1-(3-((8-(4-(trifluoromethyl)phenyl)-1,6-naphthyridin-5-yl)amino)pyrrolidin-1-yl)prop-2-en-1-one]	> 31700 nM	5 nM	1.4 % free	20 µM (≈ 8.25 µg/mL)	13 nM
C=CC(=O)N1C[C@@H](CO)[C@H](Nc2nnc(-c3ccc(C(F)(F)F)cc3)c3ncccc23)C1 [Example 25, 1-((3R,4S)-3-(hydroxymethyl)-4-((8-(4-(trifluoromethyl)phenyl)pyrido[2,3-d]pyridazin-5-yl)amino)pyrrolidin-1-yl)prop-2-en-1-one]	> 31700 nM	25 nM	12.0 % free	32 µM (≈ 14.2 µg/mL)	57 nM
C=CC(=O)N1C[C@@H](CO)[C@H](Nc2ncc(-c3ccc(C(F)(F)F)cc3)c3nccnc23)C1 [Example 27, 1-((3R,4S)-3-(hydroxymethyl)-4-((8-(4-(trifluoromethyl)phenyl)pyrido[3,4-b]pyrazin-5-yl)amino)pyrrolidin-1-yl)prop-2-en-1-one]	> 31700 nM	23 nM	6.0 % free	63 µM (≈ 27.9 µg/mL)	29 nM
C=CC(=O)NC1(CNc2nnc(-c3ccc(C(F)(F)F)cc3)c3ccccc23)CC1 [Example 40, N-(1-(((4-(4-(trifluoromethyl)phenyl)phthalazin-1-yl)amino)methyl)cyclopropyl)acrylamide]	> 31700 nM	351 nM	1.6 % free	3 µM (≈ 1.24 µg/mL)	
C=CC(=O)N1C[C@@H](CO)[C@H](Nc2nnc(-c3ccc(C(F)(F)F)cc3)c3cccnc23)C1 [Example 26, 1-((3R,4S)-3-(hydroxymethyl)-4-((5-(4-(trifluoromethyl)phenyl)pyrido[2,3-d]pyridazin-8-yl)amino)pyrrolidin-1-yl)prop-2-en-1-one]	> 31700 nM	42 nM	26.0 % free	175 µM (≈ 77.6 µg/mL)	76 nM
C=CC(=O)N1CC[C@H](Nc2nnc(-c3ccc(C(F)(F)F)cc3)c3cccnc23)C1 [Example 8, (S)-1-(3-((5-(4-(trifluoromethyl)phenyl)pyrido[2,3-d]pyridazin-8-yl)amino)pyrrolidin-1-yl)prop-2-en-1-one]	> 31700 nM	72 nM	12.0 % free	32 µM (≈ 13.2 µg/mL)	56 nM
C=CC(=O)N1C[C@@H](Nc2nnc(-c3ccc(C(F)(F)F)cc3)c3ccccc23)C[C@@H]1CO [Example 47, 1-((2R,4S)-2-(hydroxymethyl)-4-((4-(4-(trifluoromethyl)phenyl)phthalazin-1-yl)amino)pyrrolidin-1-yl)prop-2-en-1-one]	20700 nM	17 nM	8.3 % free	13 µM (≈ 5.75 µg/mL)	42 nM
C=CC(=O)N1CC[C@H](Nc2nnc(-c3ccc(C(F)(F)F)cn3)c3ccccc23)C1 [Example 18, (S)-1-(3-((4-(5-(trifluoromethyl)pyridin-2-yl)phthalazin-1-yl)amino)pyrrolidin-1-yl)prop-2-en-1-one]	> 31700 nM	255 nM	10.0 % free	47 µM (≈ 19.4 µg/mL)	200 nM
C=CC(=O)NC1(CNc2nnc(-c3ccc(C(F)(F)F)cc3)c3ccccc23)CCC1 [Example 41, N-(1-(((4-(4-(trifluoromethyl)phenyl)phthalazin-1-yl)amino)methyl)cyclobutyl)acrylamide]	21500 nM	152 nM	0.9 % free	72 µM (≈ 30.7 µg/mL)	72 nM
C=CC(=O)N1CC[C@H](Nc2ncc(-c3ccc(C(F)(F)F)cn3)c3ncccc23)C1 [Example 38, (S)-1-(3-((8-(5-(trifluoromethyl)pyridin-2-yl)-1,6-naphthyridin-5-yl)amino)pyrrolidin-1-yl)prop-2-en-1-one]	> 31700 nM	34 nM	12.5 % free	191 µM (≈ 79 µg/mL)	
CC#CC(=O)N1CC[C@H](Nc2nnc(-c3ccc(C(F)(F)F)cc3)c3ccccc23)C1 [Example 20, (S)-1-(3-((4-(4-(trifluoromethyl)phenyl)phthalazin-1-yl)amino)pyrrolidin-1-yl)but-2-yn-1-one]	22500 nM	432 nM	2.0 % free	33 µM (≈ 14 µg/mL)	
C=CC(=O)N1CC[C@H](Nc2nnc(-c3ccc(C(F)(F)F)cc3)c3ccccc23)C1 [Example 9, (S)-1-(3-((4-(4-(trifluoromethyl)phenyl)phthalazin-1-yl)amino)pyrrolidin-1-yl)prop-2-en-1-one]	> 31700 nM	60 nM	4.7 % free	< 0.8 µM	
C=CC(=O)N1C[C@H](F)[C@H](Nc2nnc(-c3ccc(C(F)(F)F)cc3)c3ncccc23)C1 [Example 1, 1-((3S,4R)-3-fluoro-4-((8-(4-(trifluoromethyl)phenyl)pyrido[2,3-d]pyridazin-5-yl)amino)pyrrolidin-1-yl)prop-2-en-1-one]	27300 nM	67 nM		209 µM (≈ 90.2 µg/mL)	93 nM
C=CC(=O)N1C[C@H](O)[C@H](Nc2ncc(-c3ccc(C(F)(F)F)cn3)c3ncccc23)C1 [Example 35, 1-((3S,4R)-3-hydroxy-4-((8-(5-(trifluoromethyl)pyridin-2-yl)-1,6-naphthyridin-5-yl)amino)pyrrolidin-1-yl)prop-2-en-1-one]	> 31700 nM	34 nM		801 µM (≈ 344 µg/mL)	79 nM
